Assay results as given in ChEMBL document CHEMBL3430912, “GSK Tres Cantos Anti-Kinetoplastid Screening (TCAKS) Data”.

Experiments:
Trypanosoma cruzi [1] = test: GSK_TCAKS: pIC50 Trypanosoma cruzi viability assay using beta-GAL activity. This assay was run at single shot at 5uM compound concentration per well. The biological reagents consisted of NIH-3T3 host cells and trypomastigotes parasitic cells; both cell types were set to a 3.3 * 10^5 cells/mL dilution in assay DMEM by means of a CASY cell counter device using a 60um capillary. 6 uL of the mixture were dispensed per well (about 1 * 10^3 host-cells and 1 * 10^3 parasites) with a Multidrop Combi dispenser. […] In all wells, the percentage of DMSO never exceeded 0.5%. Plates incubated for four days at 37C, 5% CO2. The substrate used for the assay fluorescence intensity (FLINT) readout was resorufin-beta-D-galactopiranoside (Sigma-Aldrich) at 5uM per well. It was diluted in PBS supplemented with the soft detergent Igepal (Fluka).; format: functional, organism-based, Mus musculus; settings: Tulahuen, NIH3T3
Trypanosoma cruzi [2] = test: (§1) GSK_TCAKS: pIC50 Trypanosoma cruzi Imaging: Infected Cells. […] Cells were then washed once with PBS before infection. T. cruzi trypomastigotes, collected at days 5 to 8 after infection from LLC-MK2 parasite infected cultures, were allowed to swim out for 4h at 37C from a centrifuged pellet (2,500 rpm/10 min/room temperature). Trypomastigotes were then collected and counted in a CASY Cell Counter. Trypomastigotes, in supplemented DMEM, were added to H9c2 cultures in a multiplicity of infection of 1 and incubated for 18 h. Cells were washed once with PBS before incubation of the infected H9c2 monolayer with trypsin (Life-Technologies) to detach cells from the flask. Cells were counted in a CASY Cell Counter using a 150 um capillary and their density set at 5 * 10^4 cells per mL in supplemented assay DMEM. Infected H9c2 were dispensed into 384-well poly-lysine coated assay plates at 50uL per well using a Multidrop Combi dispenser. After seeding them, the plates were incubated at 37C, 5% CO2 for 72h. Cultures were then fixed and stained by addition of 50 uL of a solution containing 8% formaldehyde and 4 uM DRAQ5 DNA dye (BioStatus, UK) per well. […] Five images were collected per well for reliable statistical analysis. Automated image analysis was performed with a script developed on Acapella High Content Imaging and Analysis Software (PerkinElmer). Output: percentage of infected cells per well as a second infection marker.; format: functional, organism-based, Rattus norvegicus; settings: H9c2, 4 h
Trypanosoma cruzi [3] = test: GSK_TCAKS: pIC50 Trypanosoma cruzi Imaging: Amastigotes/Cell. […] Cells were then washed once with PBS before infection. T. cruzi trypomastigotes, collected at days 5 to 8 after infection from LLC-MK2 parasite infected cultures, were allowed to swim out for 4h at 37C from a centrifuged pellet (2,500 rpm/10 min/room temperature). Trypomastigotes were then collected and counted in a CASY Cell Counter. Trypomastigotes, in supplemented DMEM, were added to H9c2 cultures in a multiplicity of infection of 1 and incubated for 18 h. Cells were washed once with PBS before incubation of the infected H9c2 monolayer with trypsin (Life-Technologies) to detach cells from the flask. Cells were counted in a CASY Cell Counter using a 150 um capillary and their density set at 5 * 10^4 cells per mL in supplemented assay DMEM. Infected H9c2 were dispensed into 384-well poly-lysine coated assay plates at 50uL per well using a Multidrop Combi dispenser. After seeding them, the plates were incubated at 37C, 5% CO2 for 72h. Cultures were then fixed and stained by addition of 50 uL of a solution containing 8% formaldehyde and 4 uM DRAQ5 DNA dye (BioStatus, UK) per well. […] Five images were collected per well for reliable statistical analysis. Automated image analysis was performed with a script developed on Acapella High Content Imaging and Analysis Software (PerkinElmer). Output: number of amastigotes per cell as infection level measurement.; format: functional, organism-based, Rattus norvegicus; settings: H9c2, 4 h
Trypanosoma cruzi [4] = test: as §1, with “H2C9” for “Trypanosoma cruzi”, “H9c2 Host Cardiomyocytes.” for “Infected Cells.”, “Number” for “percentage”, “H9c2 Host Cardiomyocytes nuclei to determine drug-related cytotoxicity.” for “infected cells per well as a second infection marker.”; format: functional, organism-based, Rattus norvegicus; settings: H9c2, 4 h
Leishmania donovani [5] = test: GSK_TCAKS: pIC50 Leishmania donovani viability assay using fluorescence intensity. Assay plates (1536-well) were prepared by adding 30nL per well of compound. For single shot assay, the final compound concentration was 5uM. […] Briefly, eGFP LdBOB axenic amastigotes were harvested, fixed and counted in a CASY cell counter (Roche-Applied Science). A final concentration of 1.5 * 10^5 cells per well were prepared in amastigote media containing 500 U/mL penicillin/streptomycin (Invitrogen) and 6uL was dispensed to each experimental well using a Multidrop Combi dispenser (Thermo Scientific). 6uL of assay media was dispensed to control columns used as reference for 100% compound response. Following incubation for 72 h at 37C, 5% CO2, 2 uL of resazurin was added to each well at a final concentration of 0.5 mM in phosphate buffered saline (PBS) with IGEPAL (Sigma-Aldrich), 0.05% (v/v).; format: functional, organism-based
Leishmania donovani [6] = test: GSK_TCAKS: pIC50 Leishmania donovani Imaging: Infected Macrophages. Assay plates (384-well) were prepared by adding 250nL of compound to each well. For single shot assay, the final compound concentration was 5 uM. […] Automated image analysis was performed with a script developed on Acapella High Content Imaging and Analysis Software (PerkinElmer). Output: Percent of infected macrophage cells were reported for each well.; format: functional, organism-based, Homo sapiens; settings: THP-1
Leishmania donovani [7] = test: GSK_TCAKS: pIC50 Leishmania donovani Imaging: Amastigotes/Macrophages. Assay plates (384-well) were prepared by adding 250nL of compound to each well. For single shot assay, the final compound concentration was 5 uM. […] Automated image analysis was performed with a script developed on Acapella High Content Imaging and Analysis Software (PerkinElmer). Output: Average number of amastigotes per macrophage cell were reported for each well.; format: functional, organism-based, Homo sapiens; settings: THP-1
Leishmania donovani [8] = test: GSK_TCAKS: pIC50 Leishmania donovani Imaging: THP-1 Host Macrophages. Assay plates (384-well) were prepared by adding 250nL of compound to each well. For single shot assay, the final compound concentration was 5 uM. […] Automated image analysis was performed with a script developed on Acapella High Content Imaging and Analysis Software (PerkinElmer). Output: THP-1 cell count were reported for each well.; format: functional, organism-based, Homo sapiens
[9] = tested on: Trypanosoma brucei brucei; test: GSK_TCAKS: pIC50 Trypanosoma brucei viability assay using fluorescence intensity. Assay plates (1536-well) were prepared by dispensing 25nL of compound solution per well using an Echo acoustic dispenser (Labcyte).; format: functional, organism-based; settings: Lister 427, 2 h
[10] = tested on: Trypanosoma brucei brucei; test: GSK_TCAKS: pIC50 Trypanosoma brucei viability assay using luminiscence. Assay plates (1536-well) were prepared. T. brucei cultures were harvested and counted in a CASY cell counter. A parasite suspension was prepared at a final concentration of 5 * 10^4 cells/mL in complete HMI9 medium and 6uL was dispensed to all wells containing compounds using a Multidrop Combi dispenser. 6uL of HMI9 media with 0.4% DMSO were dispensed to control columns. Plates were incubated for 24 h at 37C, 5% CO2 then tempered for 10 min at room temperature. ATP content was quantified by adding 4 uL of CellTiter-Glo Reagent (Promega) according to the manufacturer's instructions. Luminescence was measured using a ViewLux.; format: functional, organism-based; settings: Lister 427, CASY
[11] = GSK_TCAKS: pIC50 HepG2 human cell line viability assay using luminiscence. […] Seeding density was checked to ensure that new mono-layers were not more than 50% confluent at the time of harvesting. Cell suspension was added to 500 mL of the same medium at a final density of 1.2 * 10^5 cells/mL. This cell suspension was dispensed (25 uL, 3000 cells per well) into 384-well clear-bottom plates using a Multidrop Combi dispenser. Prior to addition of the cell suspension, the screening compounds (250 nL) were pre-dispensed into the plates with an Echo liquid handler. Plates were incubated for 48 h at 37C, 5% CO2. After incubation, plates equilibrated at room temperature for 30 min before proceeding to develop the luminescent signal. The signal developer, CellTiter-Glo Reagent, was allowed to equilibrate at room temperature for 30 min and added to the plates (25uL per well) using a Multidrop Combi dispenser. Plates were left for 10 min at room temperature for stabilization and then read using a ViewLux.; format: toxicity, cell-based
[12] = molecular target: Sterol 14-alpha demethylase (Trypanosoma cruzi (strain CL Brener), UniProt Q7Z1V1); test: GSK_TCAKS: pIC50 CYP51 from Trypanosoma cruzi.; format: functional
Sterol 14-alpha demethylase, sequence (Q7Z1V1 whole entry): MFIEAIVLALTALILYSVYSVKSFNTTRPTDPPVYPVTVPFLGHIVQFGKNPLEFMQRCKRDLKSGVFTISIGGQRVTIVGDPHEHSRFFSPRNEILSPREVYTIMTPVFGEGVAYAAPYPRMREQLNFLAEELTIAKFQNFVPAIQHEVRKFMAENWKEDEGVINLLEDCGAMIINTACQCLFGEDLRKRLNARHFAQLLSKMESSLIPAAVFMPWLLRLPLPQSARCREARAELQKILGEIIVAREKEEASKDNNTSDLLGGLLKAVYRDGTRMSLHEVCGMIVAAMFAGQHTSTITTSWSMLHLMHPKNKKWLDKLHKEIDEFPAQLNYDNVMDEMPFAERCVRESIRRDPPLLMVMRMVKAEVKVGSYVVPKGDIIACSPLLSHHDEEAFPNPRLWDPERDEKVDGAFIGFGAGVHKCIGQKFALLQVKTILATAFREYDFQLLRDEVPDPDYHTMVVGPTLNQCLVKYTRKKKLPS

| Compound | IC50 (Trypanosoma cruzi [1]) [µM] | IC50 (Trypanosoma cruzi [2]) [µM] | IC50 (Trypanosoma cruzi [3]) [µM] | IC50 (Trypanosoma cruzi [4]) [µM] | IC50 (Leishmania donovani [5]) [µM] | IC50 (Leishmania donovani [6]) [µM] | IC50 (Leishmania donovani [7]) [µM] | IC50 (Leishmania donovani [8]) [µM] | IC50 [9] [µM] | IC50 [10] [µM] | IC50 at 48 h [11] [µM] | IC50 [12] [µM] |
| --- | --- | --- | --- | --- | --- | --- | --- | --- | --- | --- | --- | --- |
| Cc1cc(NC(=O)C2CCCCC2)n(-c2nc3c(c(=O)[nH]2)CCC3)n1 | 0.316 | 0.501 | 0.158 | 2 | 0.0398 | 5.01 | 3.16 | 10 | 0.126 | 0.158 | 50.1 | > 100 |
| Cc1cc(NC(=O)CC2CCCCC2)n(-c2nc3c(c(=O)[nH]2)CCC3)n1 | 0.251 | 0.316 | 0.126 | 3.98 | 0.0316 | 3.16 | 1.58 | 3.98 | 0.2 | 0.158 | > 100 | > 100 |
| Cc1ccc2c(c1)SC(C(=O)Nc1nnc(-c3ccccn3)[nH]1)C2 (centres undefined) | 5.01 | 7.94 | 6.31 | > 50.1 | 6.31 | 3.98 | 2.51 | 25.1 | 3.98 | > 39.8 | 25.1 | > 100 |
| Cn1nccc1NC(=O)Cn1ccc(-c2ccncc2)n1 | > 50.1 | > 50.1 | > 50.1 | > 50.1 | > 50.1 | > 50.1 | > 50.1 | > 50.1 | 0.631 | 0.631 | > 100 | 6.31 |
| Cc1cn[nH]c1C1CCCN(Cc2nc3ccccc3n2C)C1 (centres undefined) | 3.16 | 20 | 10 | > 50.1 | 15.8 | 3.98 | 3.16 | 20 | 6.31 | 7.94 | 50.1 | 1.26 |
| COc1ccc(Cl)cc1CC(=O)Nc1nnc(-c2ccccn2)[nH]1 | 10 | > 50.1 | 10 | > 50.1 | 3.98 | 6.31 | 5.01 | > 50.1 | 15.8 | > 39.8 | 31.6 | > 100 |
| O=C(Cc1ccc2c(c1)CCC2)Nc1nnc(-c2ccccn2)[nH]1 | 10 | 10 | 10 | > 50.1 | 7.94 | 6.31 | 6.31 | > 50.1 | 20 | > 39.8 | 50.1 | 2.51 |
| COc1ccc(Nc2nccc(N(C)c3n[nH]c4c(F)cccc34)n2)cc1S(C)(=O)=O | 2 | 3.98 | 2 | 7.94 | 25.1 | 2.51 | 1 | 10 | 6.31 | 10 | 20 | 31.6 |
| COc1ccccc1CNc1cc(C2CC2)nc(-c2nccn2C)n1 | 0.891 | 0.794 | 1 | 0.631 | 1 | 0.501 | 0.398 | 15.8 | 2.51 | 2 | 20 | 20 |
| COc1ccc(CNc2cc(C3CC3)nc(-c3nccn3C)n2)cc1 | 1 | 0.794 | 0.631 | 1 | 2 | 0.794 | 0.794 | 12.6 | 1.26 | 2.51 | 25.1 | 5.01 |
| Cc1ccccc1CNc1cc(C2CC2)nc(-c2nccn2C)n1 | 0.794 | 0.794 | 0.794 | 0.794 | 1.58 | 0.631 | 0.631 | 10 | 2.51 | 1.58 | 15.8 | 15.8 |
| Cn1ccnc1-c1nc(NCc2ccccc2Cl)cc(C2CC2)n1 | 0.631 | 0.794 | 0.794 | 0.631 | 1.58 | 0.631 | 0.2 | 7.94 | 2 | 1.58 | 20 | 39.8 |
